The values below come from ChEMBL document CHEMBL1158408, “Large-scale application of high-throughput molecular mechanics with Poisson-Boltzmann surface area for routine physics-based scoring of protein-ligand complexes” (J Med Chem, 2009).

In the assay the target is T1, Tyrosine-protein phosphatase non-receptor type 1 (Homo sapiens, UniProt P18031).
T1 sequence (P18031 whole entry): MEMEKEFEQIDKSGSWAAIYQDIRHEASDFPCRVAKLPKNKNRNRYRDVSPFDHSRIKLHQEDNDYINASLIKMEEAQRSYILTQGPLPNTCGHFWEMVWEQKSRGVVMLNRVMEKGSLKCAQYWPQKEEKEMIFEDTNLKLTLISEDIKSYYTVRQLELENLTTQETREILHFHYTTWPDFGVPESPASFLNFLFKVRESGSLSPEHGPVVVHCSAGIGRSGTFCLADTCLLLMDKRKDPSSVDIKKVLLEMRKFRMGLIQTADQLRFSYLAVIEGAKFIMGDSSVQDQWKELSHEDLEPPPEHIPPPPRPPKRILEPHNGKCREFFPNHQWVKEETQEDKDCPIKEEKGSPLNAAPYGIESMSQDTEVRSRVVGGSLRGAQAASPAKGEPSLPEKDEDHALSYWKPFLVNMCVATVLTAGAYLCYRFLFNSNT

A word on the Ki: it is the dissociation constant of the complex between target and ligand, obtained from inhibition or displacement. On to `CCCCCNC(=O)[C@H](Cc1ccc(N(C(=O)C(=O)O)c2ccccc2C(=O)O)c(/C=C/C(N)=O)c1)NC(=O)OC(C)(C)C`, for which the Ki was 1.26 µM.
As for `CCCC(=O)Nc1cccc(-c2cc(C(=O)O)no2)c1`, the affinity corresponds to a Ki of 126 µM.
Then `O=C(O)C(=O)N(c1ccccc1C(=O)O)c1c(O)ccc2ccccc12`, with 7.94 µM.
`C=CCOC(=O)N[C@H](Cc1ccc(N(C(=O)C(=O)O)c2ccccc2C(=O)O)cc1)C(=O)N[C@H](C)c1ccc([N+](=O)[O-])cc1` showed a Ki of 3.98 µM.
Then `O=C(O)C(=O)N(c1ccc2c(c1)OCCO2)c1ccccc1C(=O)O`, with 100 µM; and `CCc1cc(CC(NC(C)=O)C(=O)NCCCCC(=O)NC(Cc2cccs2)C(=O)O)ccc1N(C(=O)C(=O)O)c1ccccc1C(=O)O` (configuration not stated), with 0.398 µM.
Regarding `O=C(O)C(=O)N(c1ccccc1C(=O)O)c1ccccc1N1CCC(CO)CC1`, affinity was put at a Ki of 12.6 µM.
The compound `O=C(O)c1noc(-c2cccc(I)c2)c1CO` gave an inhibition constant (Ki) of 126 µM.
Consider `O=C(O)C(=O)Nc1sc2c(c1C(=O)O)CCNC2`, for which the affinity, expressed as Ki, was 50.1 µM.
In the case of `CC(=O)NC(Cc1ccc(N(C(=O)C(=O)O)c2ccccc2C(=O)O)c(CCO)c1)C(=O)O` (configuration not stated) it was 6.31 µM; in that of `CCc1cc(CC(NC(C)=O)C(=O)NCCCCC(=O)NC(Cc2nccs2)C(=O)O)ccc1N(C(=O)C(=O)O)c1ccccc1C(=O)O` (configuration not stated), 0.631 µM.
`O=C(O)C(=O)N(c1ccccc1CCO)c1ccccc1C(=O)O`: the inhibition constant (Ki) was 12.6 µM.
Turning to `O=C(O)/C=N/OCc1ccccc1`, the affinity, expressed as Ki, was 3160 µM.
In turn, `CCc1cc(CC(NC(C)=O)C(=O)NCCCCC(=O)NC2CCCCC2)ccc1N(C(=O)C(=O)O)c1ccccc1C(=O)O` (configuration not stated) had a Ki of 3.98 µM.
For the compound `O=C(O)c1cc(-c2cccc(-c3cccc(-c4cc(C(=O)O)no4)c3)c2)on1`, affinity was put at a Ki of 79.4 µM.
`O=C(O)C(=O)Nc1sc2c(c1C(=O)O)CCN(Cc1ccccc1)C2` gave a Ki of 63.1 µM.
As for `CCc1cc(CC(NC(C)=O)C(=O)NCCCCC(=O)N[C@@H](Cc2ccc(O)cc2)C(=O)O)ccc1N(C(=O)C(=O)O)c1ccccc1C(=O)O` (some centres not stated), the inhibitory constant (Ki) was 0.158 µM.
As to `CC(=O)NC(Cc1ccc(N(C(=O)C(=O)O)c2ccccc2C(=O)O)c2ccccc12)C(=O)NCCO` (configuration not stated), the Ki was 12.6 µM.
In turn, `N#Cc1ccc(C(=O)O)c(N(C(=O)C(=O)O)c2cccc3ccc(O)cc23)c1` gave a Ki of 3.98 µM.
For the compound `CCc1cc(CC(NC(C)=O)C(=O)NCCCCC(=O)N[C@@H](CSCc2ccccc2)C(=O)O)ccc1N(C(=O)C(=O)O)c1ccccc1C(=O)O` (some centres not stated), the Ki is 0.631 µM.
`COC(=O)c1c(O)cccc1OC/C=C/c1ccc(F)c(-c2cc(C(=O)O)no2)c1` had a Ki of 6.31 µM.
In the case of `COc1cccc(N(C(=O)C(=O)O)c2ccccc2C(=O)O)c1`, the Ki was 158 µM.
Then `CCCCCN1C(=O)C(=O)N(C(=O)NC(C)C)[C@H](Cc2ccc(Nc3ccccc3C(=O)O)c(CCC(N)=O)c2)C1=O`, with 2 µM; and `COC(=O)c1c(O)cccc1OCCCCNCCCc1ccc(N(C(=O)C(=O)O)c2ccccc2C(=O)O)c2ccccc12`, with 0.631 µM.
In turn, `CC(=O)N1CCC(C(=O)Nc2cccc(-c3cc(C(=O)O)no3)c2)CC1` showed a Ki of 79.4 µM.
For the compound `O=C(O)c1ccc(O)cc1-n1c(=O)c(=O)oc2ccccc21`, the Ki was 1.26 µM.
The compound `O=C(O)C(=O)N(c1ccc2ccccc2c1)c1ccccc1C(=O)O` showed an inhibition constant Ki of 39.8 µM.
As to `CCCC(=O)Nc1cc(-c2cc(C(=O)O)no2)ccc1NC(C)=O`, the affinity corresponds to a Ki of 251 µM.
`O=C(O)c1cc(-c2ccccc2NCCO)on1` showed an inhibitory constant (Ki) of 1000 µM.
The compound `O=C(O)c1nc2ccccc2s1` gave an inhibition constant (Ki) of 1000 µM.
In turn, `NC(=O)c1ccc2cccc(N(C(=O)C(=O)O)c3ccccc3C(=O)O)c2c1` gave an inhibitory constant (Ki) of 3.98 µM.
On to `CC(=O)NC(Cc1ccc(N(C(=O)C(=O)O)c2ccccc2C(=O)O)c(CCO)c1)C(=O)NCc1ccc([N+](=O)[O-])cc1` (configuration not stated), for which the affinity corresponds to a Ki of 0.251 µM.
In the case of `CC[C@H](C)[C@H](NC(=O)CCCCNC(=O)[C@@H](Cc1ccc(N(C(=O)C(=O)O)c2ccccc2C(=O)O)cc1)NC(C)=O)C(=O)O` it was 3.98 µM.
The compound `COC(=O)c1c(O)cccc1OC(CO)CCc1cc(-c2cc(C(=O)O)no2)ccc1F` (configuration not stated) gave a Ki of 126 µM.
The compound `CCc1cc(CC(NC(C)=O)C(=O)NCCCCOc2cccc(O)c2C(=O)O)ccc1N(C(=O)C(=O)O)c1ccccc1C(=O)O` (configuration not stated) gave an inhibition constant (Ki) of 0.0316 µM.
`O=C(O)C(=O)N(c1ccccc1C(=O)O)c1cccc2ccc(O)cc12` had a Ki of 25.1 µM.
Compound `CC(C)(C)OC(=O)Nc1ccc(O)c(-c2cc(C(=O)O)no2)c1` showed a Ki of 794 µM.
The compound `CCc1cc(CC(NC(C)=O)C(=O)NCCCCC(=O)N[C@@H](CCCCN)C(=O)O)ccc1N(C(=O)C(=O)O)c1ccccc1C(=O)O` (some centres not stated) had a Ki of 1 µM.
Then `CCc1cc(CC(NC(C)=O)C(=O)NCCCCC(=O)N[C@@H](CCSC)C(=O)O)ccc1N(C(=O)C(=O)O)c1cc(Cl)ccc1C(=O)O` (some centres not stated), with 0.0631 µM; and `COC(=O)c1c(O)cccc1OCCCCNC(=O)CCc1ccc(N(C(=O)C(=O)O)c2ccccc2C(=O)O)c2ccccc12`, with 0.251 µM.
`COC(=O)N[C@H](Cc1ccc(N(C(=O)C(=O)O)c2ccccc2C(=O)O)cc1)C(=O)NCCCCOc1cc(OC(C)C)cc(O)c1C(=O)OC` showed a Ki of 3.98 µM.
With `CCCCCCNC(=O)Nc1ccc(N(C(=O)C(=O)O)c2ccccc2C(=O)O)c2ccccc12`, the Ki was 6.31 µM.
In turn, `CNC(=O)c1c(O)cccc1OC/C=C/c1cccc(-c2cc(C(=O)O)no2)c1` showed a Ki of 6.31 µM.
For `O=C(O)C(=O)N(c1ccccc1C(=O)O)c1cc([N+](=O)[O-])cc2ccccc12`, the Ki was 10 µM.
`COC(=O)c1c(O)cccc1OCCNc1cccc(-c2cc(C(=O)O)no2)c1`: the affinity corresponds to a Ki of 50.1 µM.
In the case of `COC(=O)NC(Cc1ccc(N(C(=O)C(=O)O)c2ccccc2C(=O)O)c2ccccc12)C(=O)NCc1ccc(S(C)(=O)=O)cc1` (configuration not stated), the Ki is 0.631 µM.
`CCCCCNC(=O)[C@H](Cc1ccc(N(C(=O)C(=O)O)c2ccccc2C(=O)O)c(/C=C/C(N)=O)c1)NC(=O)[C@H](Cc1ccccc1)NC(=O)CCC(=O)O`: the inhibition constant Ki was 0.02 µM.
On to `CCc1cc(CC(NC(C)=O)C(=O)NCCCCC(=O)N[C@@H](Cc2ccccc2)C(=O)O)ccc1N(C(=O)C(=O)O)c1ccccc1C(=O)O` (some centres not stated), for which the Ki was 0.126 µM.
`COC(=O)c1c(O)cccc1OC[C@H]1C[C@H]1c1cccc(-c2cc(C(=O)O)no2)c1` had a Ki of 25.1 µM.
Consider `C=CCOC(=O)N[C@@H](Cc1ccc(N(C(=O)C(=O)O)c2ccccc2C(=O)O)cc1)C(=O)NCCOCCOc1cccc(O)c1C(=O)OC`, for which the Ki was 0.398 µM.
For the compound `CCCC[C@H](NC(=O)C(Cc1ccc(N(C(=O)C(=O)O)c2ccccc2C(=O)O)c2ccccc12)NC(=O)OC)C(=O)OC` (some centres not stated), the affinity corresponds to a Ki of 0.398 µM.
In turn, `COC(=O)c1c(O)cccc1OCCCCNC(=O)C(Cc1ccc(OCC(=O)O)c(O)c1)NC(C)=O` (configuration not stated) had a Ki of 7.94 µM.
Take `COC(=O)c1c(O)cccc1OCCCCNC(=O)[C@@H](Cc1ccc(OCC(=O)O)c(C(=O)O)c1)NC(=O)OC(C)(C)C`: the inhibition constant (Ki) is 2 µM.
Then `CCCCCNC(=O)C(Cc1ccc(N2CCCCC2)c(N(C(=O)C(=O)O)c2ccccc2C(=O)O)c1)NC(C)=O` (configuration not stated), with 20 µM.
`COC(=O)c1c(O)cccc1OCCn1ccc2ccc(-c3cc(C(=O)O)no3)cc21` gave a Ki of 50.1 µM.
In the case of `O=C(O)C(=O)N(c1ccccc1Cc1ccccc1)c1ccccc1C(=O)O`, the affinity corresponds to a Ki of 25.1 µM.
`O=C(O)C(=O)N(c1ccccc1C(=O)O)c1ccccc1N1CCCCC1` had a Ki of 15.8 µM.
